# Laboratory results published in patent US8598374B2, “GPR120 receptor agonists and uses thereof” (Metabolex, Inc, priority 2008, dated 2013).
# Biological target: T1, human GPR120 (Homo sapiens, UniProt Q5NUL3)
# T1 construct: Flag (DYKDDDDK) (N); host or cells: HEK293 cells co-expressing Gqi5
# T1 sequence (Q5NUL3 1-361): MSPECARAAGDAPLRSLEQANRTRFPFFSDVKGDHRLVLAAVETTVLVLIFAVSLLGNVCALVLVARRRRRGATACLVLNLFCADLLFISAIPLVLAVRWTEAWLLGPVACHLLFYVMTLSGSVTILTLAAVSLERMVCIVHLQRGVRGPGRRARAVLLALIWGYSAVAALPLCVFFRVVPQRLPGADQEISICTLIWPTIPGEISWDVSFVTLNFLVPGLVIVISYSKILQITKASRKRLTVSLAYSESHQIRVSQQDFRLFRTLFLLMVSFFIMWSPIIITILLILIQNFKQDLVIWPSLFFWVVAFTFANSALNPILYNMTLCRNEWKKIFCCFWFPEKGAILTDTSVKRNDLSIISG
# Assay: Intracellular Ca2+ assay (FLIPR Calcium 4, Flexstation) in human GPR120 stable cell line
# Format: cell-based
# Conditions: % activity at 2.5 μM compared to the maximal activity of the compound of Example 25 at 2.5 μM; HEK293 cells co-expressing Gqi5
# Experimental: Human GPR120 stable cell line was purchased from Multispan Inc (26219 Eden Landing Road, Hayward, Calif. 94545). This GPR120 cell line was generated in HEK293 cells co-expressing Gqi5. In this cell line, the Flag epitope tag (DYKDDDDK) was fused to the amino terminus of human GPR120 protein.
# The concentration of intracellular Ca^2+ was measured as described below. Human GPR120 cells were plated in 96 well plates (Poly-D-Lysine coated black/clear Plate, Greiner Bio-One) at 70,000 cells per well and cultured overnight in conditions of 37° C. and 5% CO2. A Ca^2+ assay dye stock solution was prepared by adding 10 mL of assay buffer (HBSS/20 mM HEPES, pH 7.4) to FLIPR Calcium 4 Assay Bulk Kit (Molecular Devices). The 10 mL of Ca^2+ assay dye solution was prepared by further diluting 0.5 mL of Ca^2+ assay dye stock solution with 10 mL of assay buffer. The medium of the cells was removed and immediately 100 μL of the Ca^2+ assay dye solution was dispensed into each well followed by incubation at 37° C. and 5% CO2 for 50 minutes to incorporate the Ca^2+ dye into the cells. The cell plate was then placed in the Flexstation (Molecular Devices) for 20 minutes at 37° C. Compounds were dissolved in 100% DMSO and diluted to desired concentrations with assay buffer and placed in the Flexstation simultaneously with the cell plate for 20 minute incubation at 37° C. prior to reading. Fluorescence intensity was measured immediately following compound addition (25 μL/well) on the Flexstation at an excitation wavelength of 485 nm and an emission wavelength of 525 with 515 nm auto cutoff. The resulting increase in fluorescence intensities corresponds to increases in intracellular Ca^2+ levels.
# Compounds were dissolved in 100% DMSO to a concentration of 20 mM to provide stock solutions. To determine activity against human GPR120, compounds were added with human GPR120 stably expressing cells (described above), at eight desired concentrations ranging from 0.00001 to 20 μM, in 96 well plates and fluorescence intensities were measured for 90 seconds with 2-second intervals. An EC50 value (concentration of the GPR120 agonist where 50% of the agonist's maximal activity is observed) was calculated using the changes (Max-Min) of fluorescence intensity.
# To determine percent activity for a tested compound, the fluorescence intensity value obtained at a particular concentration were compared to the maximal fluorescence intensity value obtained for reference compound GW9508 (4-[[(3-phenoxyphenyl)methyl]amino]benzene propanoic acid; British Journal of Pharmacology 2006 148, 619-628) or the compound of Example 25. When GW9508 was used as the reference compound, the maximal activity of GW9508 at 6.7 μM was designated as 100% activity. When the compound of Example 25 was used as the reference compound, the maximal activity of the compound of Example 25 at 2.5 μM was designated as 100% activity. Typically, the GW9508 activity reached a maximum at a concentration of approximately 6.7 μM and typically the compound of Example 25 reached a maximum activity at approximately 2.5 μM.
row,Compound,% Activity (Ex. 25 Reference Compound) [%]
1,"Cc1cc(OCC(=O)O)ccc1OCc1cc(Cl)cc2c1OC(C)(C)C2 [Example 103, 2-(4-((5-chloro-2,2-dimethyl-2,3-dihydrobenzofuran-7-yl)methoxy)-3-methylphenoxy)acetic acid]",98.96
2,"CC(CC(=O)O)c1cc(F)c(OCc2cc(Cl)cc3c2OC(C)(C)C3)c(F)c1 (stereo not shown) [Example 106, 3-(4-((5-chloro-2,2-dimethyl-2,3-dihydrobenzofuran-7-yl)methoxy)-3,5-difluorophenyl)butanoic acid]",154.51
3,"CC(Cc1cc(F)c(OCc2cc(Cl)cc3c2OC(C)C3(C)C)c(F)c1)C(=O)O (stereo not shown) [Example 109, 3-(4-((5-chloro-2,3,3-trimethyl-2,3-dihydrobenzofuran-7-yl)methoxy)-3,5-difluorophenyl)-2-methylpropanoic acid]",72.36
4,"CC1(C)Cc2cc(Cl)cc(COc3ccc4c(c3)CC(C(=O)O)C4)c2O1 (stereo not shown) [Example 112, 5-((5-chloro-2,2-dimethyl-2,3-dihydrobenzofuran-7-yl)methoxy)-2,3-dihydro-1H-indene-2-carboxylic acid]",115.42
5,"CC(C)Oc1cc(OCc2cc(Cl)cc3c2OC(C)(C)C3)ccc1CCC(=O)O [Example 116, 3-(4-((5-chloro-2,2-dimethyl-2,3-dihydrobenzofuran-7-yl)methoxy)-2-isopropoxyphenyl)propanoic acid]",145.6
6,"CN(C)Cc1cc(OCc2cc(F)cc3c2OC(C)(C)C3)ccc1CCC(=O)O [Example 122, 3-(2-((dimethylamino)methyl)-4-((5-fluoro-2,2-dimethyl-2,3-dihydrobenzofuran-7-yl)methoxy)phenyl)propanoic acid]",3.58
7,"Cc1cc2c(OCc3cc(F)cc4c3OC(C)(C)C4)ccc(CCC(=O)O)c2o1 [Example 125, 3-(4-((5-fluoro-2,2-dimethyl-2,3-dihydrobenzofuran-7-yl)methoxy)-2-methylbenzofuran-7-yl)propanoic acid]",32.57
8,"CC(=O)NCCOC(=O)C(C)Cc1ccc(OCc2cc(Cl)cc3c2OC(C)(C)C3)c(C(F)(F)F)c1 (stereo not shown) [Example 126, 2-acetamidoethyl 3-(4-((5-chloro-2,2-dimethyl-2,3-dihydrobenzofuran-7-yl)methoxy)-3-(trifluoromethyl)phenyl)-2-methylpropanoate]",47.02
9,CC1(C)Cc2cc(Cl)cc(CNc3ccc(CCC(=O)O)cc3)c2O1 [Example 127],152.93
10,"CCc1cc(OCc2cc(F)cc3c2OC(C)(C)C3)ccc1CCC(=O)O [Example 134, 3-(2-ethyl-4-((5-fluoro-2,2-dimethyl-2,3-dihydrobenzofuran-7-yl)methoxy)phenyl)propanoic acid]",151.44
11,"CC1(C)Cc2cc(F)cc(COc3ccc(CCC(=O)O)c(OC(F)(F)F)c3)c2O1 [Example 136, 3-(4-((5-fluoro-2,2-dimethyl-2,3-dihydrobenzofuran-7-yl)methoxy)-2-(trifluoromethoxy)phenyl)propanoic acid]",140.51

# Further lines, results first:
row,% Activity (Ex. 25 Reference Compound) [%],Compound
1,121.29,"CC(Cc1ccc(OCc2ccc(F)c3c2CC(C)(C)O3)cc1)C(=O)O (stereo not shown) [Example 91, 3-(4-((7-fluoro-2,2-dimethyl-2,3-dihydrobenzofuran-4-yl)methoxy)phenyl)-2-methylpropanoic acid]"
2,98.45,"CC1(C)Cc2c(COc3ccc4c(c3)CCC4CC(=O)O)ccc(F)c2O1 (stereo not shown) [Example 94, 2-(5-((7-fluoro-2,2-dimethyl-2,3-dihydrobenzofuran-4-yl)methoxy)-2,3-dihydro-1H-inden-1-yl)acetic acid]"
3,124.82,"CC(Cc1ccc(OCc2c(F)ccc3c2CC(C)(C)O3)cc1)C(=O)O (stereo not shown) [Example 96, 3-(4-((5-fluoro-2,2-dimethyl-2,3-dihydrobenzofuran-4-yl)methoxy)phenyl)-2-methylpropanoic acid]"
4,101.53,"CC1(C)Cc2c(ccc(F)c2COc2c(F)cc(C3CC3C(=O)O)cc2F)O1 (stereo not shown) [Example 99, 2-(3,5-difluoro-4-((5-fluoro-2,2-dimethyl-2,3-dihydrobenzofuran-4-yl)methoxy)phenyl)cyclopropanecarboxylic acid]"
5,143.85,"COc1cc(COc2ccc(CC(C)C(=O)O)cc2)c2c(c1)CC(C)(C)O2 (stereo not shown) [Example 108, 3-(4-((5-methoxy-2,2-dimethyl-2,3-dihydrobenzofuran-7-yl)methoxy)phenyl)-2-methylpropanoic acid]"
6,51.55,"CC(Cc1cc(F)c(OCc2cc(OCc3ccccc3)cc3c2OC(C)(C)C3)c(F)c1)C(=O)O (stereo not shown) [Example 111, 3-(4-((5-(benzyloxy)-2,2-dimethyl-2,3-dihydrobenzofuran-7-yl)methoxy)-3,5-difluorophenyl)-2-methylpropanoic acid]"
7,123.58,"CC1(C)Cc2cc(F)cc(COc3ccc4cc(C(=O)O)ccc4c3)c2O1 [Example 114, 6-((5-fluoro-2,2-dimethyl-2,3-dihydrobenzofuran-7-yl)methoxy)-2-naphthoic acid]"
8,151.78,"CC(C)Oc1cc(OCc2cc(F)cc3c2OC(C)(C)C3)ccc1CCC(=O)O [Example 115, 3-(4-((5-fluoro-2,2-dimethyl-2,3-dihydrobenzofuran-7-yl)methoxy)-2-isopropoxyphenyl)propanoic acid]"
9,104.49,"Cc1cc2cc(Cl)cc(COc3ccc(CC(C)C(=O)O)cc3F)c2o1 (stereo not shown) [Example 120, 3-(4-((5-chloro-2-methylbenzofuran-7-yl)methoxy)-3-fluorophenyl)-2-methylpropanoic acid]"
10,47.01,"CC(=O)Nc1cc(COc2ccc(CC(C)C(=O)O)cc2)c2c(c1)CC(C)(C)O2 (stereo not shown) [Example 123, 3-(4-((5-acetamido-2,2-dimethyl-2,3-dihydrobenzofuran-7-yl)methoxy)phenyl)-2-methylpropanoic acid]"
11,131.64,"CC(Cc1ccc(OCc2cc(OC(F)(F)F)cc3c2OC(C)(C)C3)cc1)C(=O)O (stereo not shown) [Example 124, 3-(4-((2,2-dimethyl-5-(trifluoromethoxy)-2,3-dihydrobenzofuran-7-yl)methoxy)phenyl)-2-methylpropanoic acid]"
12,103.85,"CC(Cc1ccc(OCc2cc(Cl)cc3c2OC(C)(C)C3O)cc1)C(=O)O (stereo not shown) [Example 130, 3-(4-((5-chloro-3-hydroxy-2,2-dimethyl-2,3-dihydrobenzofuran-7-yl)methoxy)phenyl)-2-methylpropanoic acid]"
13,103.4,"CC1(C)Cc2cc(F)cc(COc3ccc(CC(=O)O)cc3)c2O1 [Example 133, 2-(4-((5-fluoro-2,2-dimethyl-2,3-dihydrobenzofuran-7-yl)methoxy)phenyl)acetic acid]"
14,146.18,"CCc1cc(OCc2cccc3c2CC(C)(C)O3)ccc1CCC(=O)O [Example 140, 3-(4-((2,2-dimethyl-2,3-dihydrobenzofuran-4-yl)methoxy)-2-ethylphenyl)propanoic acid]"

# Same assay, conditions: human GPR120 stably expressing cells, eight concentrations from 0.00001 to 20 μM
row,EC50 [µM],Compound
1,1 to 10,"CC(Cc1ccc(OCc2ccc(F)c3c2CC(C)(C)O3)cc1)C(=O)O (stereo not shown) [Example 91, 3-(4-((7-fluoro-2,2-dimethyl-2,3-dihydrobenzofuran-4-yl)methoxy)phenyl)-2-methylpropanoic acid]"
2,1 to 10,"Cc1cc2c(OCc3cc(F)cc4c3OC(C)(C)C4)ccc(CCC(=O)O)c2o1 [Example 125, 3-(4-((5-fluoro-2,2-dimethyl-2,3-dihydrobenzofuran-7-yl)methoxy)-2-methylbenzofuran-7-yl)propanoic acid]"
3,1 to 10,"CC(=O)NCCOC(=O)C(C)Cc1ccc(OCc2cc(Cl)cc3c2OC(C)(C)C3)c(C(F)(F)F)c1 (stereo not shown) [Example 126, 2-acetamidoethyl 3-(4-((5-chloro-2,2-dimethyl-2,3-dihydrobenzofuran-7-yl)methoxy)-3-(trifluoromethyl)phenyl)-2-methylpropanoate]"
